Experimental data from PMC11413853, “Discovery of VU6007496: Challenges in the Development of an M1 Positive Allosteric Modulator Backup Candidate” (ACS Chemical Neuroscience, 2024).
Read-outs that look alike come from different tables or passages of the source.

What was measured:
[1] = system: mice; test: Mouse phenotypic seizure liability assay (modified Racine score); format: in vivo; conditions: 100 mg/kg i.p., male C57Bl/6 mice, 3 h
Protocol: Brain plasma concentration ratio (Kp) was calculated by dividing brain concentration by plasma concentration for each animal. Unbound brain to unbound plasma concentration ratio (Kp,uu) is calculated using the following formula: Kp,uu = (Brain ng/g x brain fu)/(plasma ng/ml x plasma fu). […]
Behavioral Manifestations of Seizure Activity
To evaluate induction of behavioral manifestation of seizure activity, C57Bl/6 mice received administration of vehicle or 100 mg/kg M1 PAM. Compounds were formulated in 30% Captisol (11) or 10% Tween 80 (2-4 and 12) (pH 7.0) at a concentration of 10 mg/mL and injected i.p. (n = 3). Animals were monitored continuously and scored for behavioral manifestations of seizure activity at 5, 10, 15, and 30 min, and 1 and 3 h. Behavioral manifestations of seizures were scored using a modified Racine scoring system.2 Briefly, a score of 0 represents no behavior alterations; score 1, immobility, mouth and facial movements, or facial clonus; score 2, head nodding, tail extension; score 3, forelimb clonus, repetitive movements; score 4, rearing and tonic clonic seizure; and score 5, continuous rearing and falling, severe generalized tonic clonic seizure.

[2] = Rat plasma and brain exposure, 100 mg/kg i.p., 3 h; format: in vivo; conditions: brain and plasma, ip, 100 mg/kg i.p.
Description: Due to the prevalence of metabolite A (VU6036463, 24) in both in vitro preparations and in vivo, we first synthesized and characterized 24. Utilizing intermediate 19 (Scheme 3), a Suzuki coupling with benzyl chloride 28 afforded a mixture of N-Boc protected analog 29 and N-H analog 29a in moderate isolated yield. Hydrolysis of the nitriles to the carboxylic acid, followed by a HATU-mediated coupling with tetrahydro-2H-pyran-4-amine delivered 24 in 81% yield over the two steps.[21] In our kinetic assays, 24 was an “active” metabolite, with the profile of an M1 ago-PAM. […] To ascertain if 24 could be the source of the adverse cholinergic events in rats, we dosed 11 and 24, in parallel, at a dose of 100 mg/kg i.p. in 30% captisol and prepared plasma and brain samples at a 3-h time point to determine brain exposure of the M1 ago-PAM 24. In this study, 11 achieved a total plasma concentration of 3.6 μM and a total brain concentration of 0.93 μM (Kp = 0.26).

[3] = molecular target: T1, human M1 (Homo sapiens, UniProt P11229); test: Calcium mobilization assay, human M1 (agonist and PAM modes); format: cell-based
T1 sequence (P11229 1-460): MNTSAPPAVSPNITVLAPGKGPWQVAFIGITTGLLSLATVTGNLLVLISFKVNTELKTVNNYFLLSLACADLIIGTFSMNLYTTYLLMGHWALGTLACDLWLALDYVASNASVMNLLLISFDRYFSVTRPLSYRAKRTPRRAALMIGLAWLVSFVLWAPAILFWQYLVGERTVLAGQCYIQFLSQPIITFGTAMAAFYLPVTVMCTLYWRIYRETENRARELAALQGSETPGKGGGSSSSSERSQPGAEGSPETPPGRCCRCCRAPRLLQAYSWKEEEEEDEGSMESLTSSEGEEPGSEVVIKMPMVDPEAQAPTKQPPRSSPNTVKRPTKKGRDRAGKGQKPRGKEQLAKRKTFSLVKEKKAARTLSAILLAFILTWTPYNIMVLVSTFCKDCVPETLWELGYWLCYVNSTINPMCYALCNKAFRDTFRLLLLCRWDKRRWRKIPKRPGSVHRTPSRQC

Kp at 3 h [2]	hM1 PAM AChmax (%) ([3]; PAM mode, % ACh max)	EC50 ([3]; PAM mode, read-out: hM1 PAM EC50)	hM1 Agonist AChmax (%) ([3]; agonist mode, % ACh max)	EC50 ([3]; agonist mode, read-out: hM1 Agonist EC50)	SMILES	seizure liability / behavioral convulsions (modified Racine score) [1]
–	–	–	–	–	Cc1ccc(Cc2cc3c(=O)n([C@H]4CCCC[C@@H]4O)cnc3c3ccccc23)cn1 [compound 3, reference compound]	robust behavioral convulsions
–	–	–	–	–	Cn1ccc(-c2ccc(Cn3cc(C(=O)N[C@H]4CCOC[C@@H]4O)c4ncccc43)cc2)n1 [compound 4, reference compound]	robust behavioral convulsions
0.38	71%	4.9 nM	60%	176 nM	Cn1ccc(-c2ccc(Cc3cc(C(=O)N[C@H]4CCOC[C@@H]4O)nc4ccn(C)c34)cc2)n1 [compound 30]	–
